Source: patent publication US20120088791A1, “AMIDOBIPIPERIDINECARBOXYLATE M1 ALLOSTERIC AGONISTS, ANALOGS AND DERIVATIVES THEREOF, AND METHODS OF MAKING AND USING SAME” (VANDERBILT UNIVERSITY, priority 2009, published 2012)

Key:
[1] = preclinical and clinical studies; cited from earlier work
[2] = multiple preclinical models; cited from earlier work
[3] = tested on: Aβ 1-40 and 1-42 production; conditions: in vitro; cited from earlier work
rM1 = molecular target: T1, rM1 (Rattus norvegicus, UniProt P08482); experiment: Calcium mobilization assay, CHO-K1 cells stably expressing rM1; type: cell-based; conditions: Table 1, R-enantiomers; for Emax: RM1, read-out: Efficacy (% Max ACh); for EC50: agonist-evoked calcium flux, read-out: Potency (EC50)
T1 construct: host or cells: CHO-K1
T1 sequence (P08482 1-460): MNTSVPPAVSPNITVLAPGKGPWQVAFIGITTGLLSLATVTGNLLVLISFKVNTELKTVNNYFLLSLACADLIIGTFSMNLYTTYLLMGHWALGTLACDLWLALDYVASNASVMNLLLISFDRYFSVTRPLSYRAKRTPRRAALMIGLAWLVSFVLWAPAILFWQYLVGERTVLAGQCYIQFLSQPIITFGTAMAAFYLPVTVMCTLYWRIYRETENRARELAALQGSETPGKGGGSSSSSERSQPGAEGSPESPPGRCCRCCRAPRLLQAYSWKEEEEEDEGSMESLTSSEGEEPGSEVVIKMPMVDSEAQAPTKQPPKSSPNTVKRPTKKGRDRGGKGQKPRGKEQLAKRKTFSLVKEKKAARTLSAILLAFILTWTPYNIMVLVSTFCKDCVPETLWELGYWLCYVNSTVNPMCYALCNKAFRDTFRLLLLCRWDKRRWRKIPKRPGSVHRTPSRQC
Excerpt: (§1) Cell culture and transfections. Chinese hamster ovary (CHO-K1) cells stably expressing rat (r)M1 were purchased from the American Type Culture Collection and cultured according to their indicated protocol. CHO cells stably expressing human (h)M2, hM3, and hM5 were used and described previously (Levey et al., 1991); rM4 cDNA, provided by T. I. Bonner (National Institutes of Health, Bethesda, Md.), was used to stably transfect CHO-K1 cells purchased from the American Type Culture Collection using Lipofectamine2000. To make stable hM2 and rM4 cell lines for use in calcium mobilization assays, these cells also were stably transfected with a chimeric G-protein (Gqi5) using Lipofectamine 2000. M1, hM3, and hM5 cells were grown in Ham's F-12 medium containing 10% heat-inactivated fetal bovine serum (FBS), 20 mM HEPES, and 50 μg/ml G418 sulfate. hM2-Gqi5 cells were grown in the same medium also containing 500 μg/ml Hygromycin B. Stable rM4-Gqi5 cells were grown in DMEM containing 10% heat-inactivated FBS, 20 mM HEPES, 400 μg/ml G418 sulfate, and 500 μg/ml Hygromycin B. The rat M1 Y381A orthosteric mutant receptor cDNA was generated using the Quik-Change site-directed mutagenesis kit (Stratagene) and verified by sequencing. CHO-K1 cells were stably transfected with this cDNA using Lipofectamine2000 and screened for expression based on calcium mobilization in response to the allosteric M1 agonist N-desmethylclozapine.
Calcium mobilization assays. For measurement of agonist-evoked increases in intracellular calcium, CHO-K1 cells stably expressing muscarinic receptors were plated in 100 μl of growth medium at 5×10^4 (rM1, hM3, and hM5) or 6×10^4 cells per well (rM1 Y381A, hM2, and rM4) in Costar 96-well black-walled, tissue culture (TC)-treated, clear-bottom plates (Fisher). Cells were incubated overnight at 37° C. and 5% CO2. The next day, medium was removed from the cells, and they were incubated with 50 μl of 2 μM Fluo-4 AM diluted in assay buffer [HBSS (Invitrogen) supplemented with 20 mM HEPES and 2.5 mM probenecid, pH 7.4] for 1 h at 37° C. Dye was removed and replaced with 45 μl of assay buffer. Agonists were diluted into assay buffer at a 2× concentration and applied to cells using the automated system at 19 s into the 130 s protocol. Calcium flux was measured over time as an increase in fluorescence (fold over basal) using the Flexstation plate reader (Molecular Devices).

hM2 = molecular target: T2, hM2 (Homo sapiens, UniProt P08172); experiment: Calcium mobilization assay, CHO cells stably expressing hM2-Gqi5; type: cell-based; conditions: selectivity for M1; read-out: potency (EC50) versus M2
T2 construct: expressed in transfected cells; host or cells: CHO cells, also stably transfected with chimeric G-protein Gqi5
T2 sequence (P08172 1-466): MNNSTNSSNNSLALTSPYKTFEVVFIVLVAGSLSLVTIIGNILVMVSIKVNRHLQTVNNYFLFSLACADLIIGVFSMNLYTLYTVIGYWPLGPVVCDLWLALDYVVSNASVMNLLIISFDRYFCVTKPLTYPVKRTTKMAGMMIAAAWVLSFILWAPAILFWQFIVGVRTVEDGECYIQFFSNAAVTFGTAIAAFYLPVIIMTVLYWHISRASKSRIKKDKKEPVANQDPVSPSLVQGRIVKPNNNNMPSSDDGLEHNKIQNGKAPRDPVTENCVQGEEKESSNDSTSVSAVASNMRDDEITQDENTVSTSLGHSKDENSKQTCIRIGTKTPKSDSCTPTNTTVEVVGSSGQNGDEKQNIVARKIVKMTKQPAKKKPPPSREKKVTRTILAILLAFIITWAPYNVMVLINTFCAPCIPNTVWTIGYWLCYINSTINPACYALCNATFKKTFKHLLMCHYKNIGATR
Excerpt: as §1, with “CHO-K1 cells were stably transfected with this cDNA using Lipofectamine2000 and screened for expression based on calcium mobilization in response to the allosteric M1 agonist N-desmethylclozapine.” left out
(§2) Calcium mobilization assays. […] Calcium flux was measured over time as an increase in fluorescence (fold over basal) using the Flexstation plate reader (Molecular Devices).

hM3 = molecular target: T3, hM3 (Homo sapiens, UniProt P20309); experiment: Calcium mobilization assay, CHO cells stably expressing hM3; type: cell-based; conditions: selectivity for M1; read-out: potency (EC50) versus M3
T3 construct: expressed in transfected cells; host or cells: CHO cells
T3 sequence (P20309 whole entry): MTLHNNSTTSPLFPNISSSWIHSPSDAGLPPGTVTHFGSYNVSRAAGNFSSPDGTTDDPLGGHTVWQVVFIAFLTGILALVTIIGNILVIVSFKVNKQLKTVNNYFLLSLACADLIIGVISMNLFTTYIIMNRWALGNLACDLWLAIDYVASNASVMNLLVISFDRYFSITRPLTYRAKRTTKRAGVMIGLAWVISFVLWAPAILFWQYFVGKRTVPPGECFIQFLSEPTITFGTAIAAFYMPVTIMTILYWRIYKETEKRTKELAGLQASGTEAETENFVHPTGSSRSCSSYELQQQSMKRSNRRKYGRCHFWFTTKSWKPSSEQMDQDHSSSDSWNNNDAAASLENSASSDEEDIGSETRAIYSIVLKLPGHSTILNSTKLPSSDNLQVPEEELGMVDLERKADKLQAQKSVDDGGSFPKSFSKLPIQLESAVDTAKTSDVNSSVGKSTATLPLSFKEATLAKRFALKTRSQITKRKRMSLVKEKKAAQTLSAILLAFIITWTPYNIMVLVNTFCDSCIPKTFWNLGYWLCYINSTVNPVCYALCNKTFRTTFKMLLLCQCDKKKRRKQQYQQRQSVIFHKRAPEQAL
Excerpt: as §1, with “CHO-K1 cells were stably transfected with this cDNA using Lipofectamine2000 and screened for expression based on calcium mobilization in response to the allosteric M1 agonist N-desmethylclozapine.” left out
as §2

rM4 = molecular target: T4, rM4 (Rattus norvegicus, UniProt P08485); experiment: Calcium mobilization assay, CHO-K1 cells stably expressing rM4-Gqi5; type: cell-based; conditions: selectivity for M1; read-out: potency (EC50) versus M4
T4 construct: expressed in transfected cells; host or cells: CHO-K1 cells, also stably transfected with chimeric G-protein Gqi5
T4 sequence (P08485 1-478): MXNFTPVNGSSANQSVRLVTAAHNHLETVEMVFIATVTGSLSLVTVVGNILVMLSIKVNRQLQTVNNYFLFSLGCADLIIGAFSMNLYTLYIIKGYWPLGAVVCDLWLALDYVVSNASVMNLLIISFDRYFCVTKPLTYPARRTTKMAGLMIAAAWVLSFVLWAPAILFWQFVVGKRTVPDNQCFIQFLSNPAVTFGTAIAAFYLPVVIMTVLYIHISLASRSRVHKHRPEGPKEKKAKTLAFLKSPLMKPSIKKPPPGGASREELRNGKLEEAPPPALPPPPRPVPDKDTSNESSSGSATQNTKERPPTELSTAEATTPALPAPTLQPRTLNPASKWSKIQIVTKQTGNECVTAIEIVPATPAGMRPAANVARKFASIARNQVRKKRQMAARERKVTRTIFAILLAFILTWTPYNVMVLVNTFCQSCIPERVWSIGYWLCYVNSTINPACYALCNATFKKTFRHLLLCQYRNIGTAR
Excerpt: as §1, with “CHO-K1 cells were stably transfected with this cDNA using Lipofectamine2000 and screened for expression based on calcium mobilization in response to the allosteric M1 agonist N-desmethylclozapine.” left out
as §2

hM5 = molecular target: T5, hM5 (Homo sapiens, UniProt P08912); experiment: Calcium mobilization assay, CHO cells stably expressing hM5; type: cell-based; conditions: selectivity for M1; read-out: potency (EC50) versus M5
T5 construct: expressed in transfected cells; host or cells: CHO cells
T5 sequence (P08912 1-532): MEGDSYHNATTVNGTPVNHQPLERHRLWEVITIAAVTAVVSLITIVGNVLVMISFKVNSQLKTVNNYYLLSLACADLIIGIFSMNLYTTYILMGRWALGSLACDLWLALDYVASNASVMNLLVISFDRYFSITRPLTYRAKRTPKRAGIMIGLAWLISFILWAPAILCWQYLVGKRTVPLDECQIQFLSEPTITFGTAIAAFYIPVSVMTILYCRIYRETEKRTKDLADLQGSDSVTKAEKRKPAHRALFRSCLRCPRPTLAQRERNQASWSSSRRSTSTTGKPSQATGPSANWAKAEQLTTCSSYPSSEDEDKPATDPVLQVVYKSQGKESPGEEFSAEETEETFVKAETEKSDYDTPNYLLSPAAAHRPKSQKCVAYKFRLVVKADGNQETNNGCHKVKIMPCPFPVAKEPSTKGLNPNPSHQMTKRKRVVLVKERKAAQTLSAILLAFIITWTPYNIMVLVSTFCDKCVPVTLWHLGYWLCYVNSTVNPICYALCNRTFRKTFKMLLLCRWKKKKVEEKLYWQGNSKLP
Excerpt: as §1, with “CHO-K1 cells were stably transfected with this cDNA using Lipofectamine2000 and screened for expression based on calcium mobilization in response to the allosteric M1 agonist N-desmethylclozapine.” left out
as §2

**Q.** Which “efficacy with regard to positive, negative and cognitive symptoms” value [1] does the source give for `CCCCCCOc1nsnc1C1=CCCN(C)C1` [Xanomeline] here?
**A.** Its value is “proved efficacious”.

**Q.** For `Cc1ccccc1CN1CCC(N2CCC(n3c(=O)[nH]c4ccccc43)CC2)CC1` [TBPB], which “efficacy in preclinical models of schizophrenia” value [2] is on record?
**A.** Its value is “demonstrated efficacy”.

**Q.** What about the “effect on Aβ 1-40 and 1-42 production” value [3] of the same molecule?
**A.** The value was “decrease Aβ 1-40 and 1-42 production in vitro”.

**Q.** With `CCOC(=O)N1CCC(N2CCC[C@@H](NC(=O)c3ccccc3)C2)CC1` [(R)-ethyl 3-benzamido-1,4′-bipiperidine-1′-carboxylate] as the molecule, how does the Emax (rM1) read?
**A.** Its Emax is 91%.

**Q.** What about the EC50 (rM1) of the same molecule?
**A.** The EC50 was 0.127 µM.

**Q.** And the EC50 (hM2)?
**A.** Its EC50 is > 50 µM.

**Q.** And the EC50 (hM3)?
**A.** The EC50 was > 50 µM.

**Q.** What about the EC50 (rM4) of the same molecule?
**A.** Its EC50 is > 50 µM.

**Q.** What about the EC50 (hM5) of the same molecule?
**A.** Its EC50 is > 50 µM.

**Q.** For `CCOC(=O)N1CCC(N2CCC[C@@H](NC(=O)c3ccccc3C)C2)CC1` [(R)-ethyl 3-(2-methylbenzamido)-1,4′-bipiperidine-1′-carboxylate], which Emax (rM1) is on record?
**A.** Its Emax is 96%.

**Q.** And the EC50 (rM1)?
**A.** Its EC50 is 0.088 µM.

**Q.** What about the EC50 (hM2) of the same molecule?
**A.** The EC50 was > 50 µM.

**Q.** And the EC50 (hM3)?
**A.** Its EC50 is > 50 µM.

**Q.** What about the EC50 (rM4) of the same molecule?
**A.** The EC50 was > 50 µM.

**Q.** What about the EC50 (hM5) of the same molecule?
**A.** The EC50 was > 50 µM.
